This passage reports Ki results from ChEMBL document CHEMBL1129757 (J Med Chem, 1996).

The structures appear in SMILES notation.

In assay [1] the target is T1, Melatonin receptor (Gallus gallus, UniProt P49288+P51050+P49285). Nature of the assay: Binding affinity towards melatonin receptor in chicken brain.
For assay [2], the target named is T1, Melatonin receptor. Nature of the assay: Binding affinity towards melatonin receptor in Chicken brain Experiment 1.
Assay [3] concerns the target T1, Melatonin receptor. Description: Binding affinity towards melatonin receptor in Chicken brain Experiment 2.

For orientation: Ki means a dissociation constant, usually derived from enzyme kinetics or from competition with a known ligand. Low readings indicate tighter binding, high ones weaker binding.

Take `CCC(=O)NCCCc1cccc(OC)c1`: on Melatonin receptor [1], the Ki worked out at 5.6 nM.

Consider `CCCCC(=O)NCCCCc1ccccc1OC`, for which the Ki on Melatonin receptor [1] stood at 9190 nM.

On Melatonin receptor [1], `CCCC(=O)NCCc1ccc(OC)cc1` returned a Ki of 17900 nM.

`CCC(=O)NCCCCc1ccc(OC)cc1`: the Ki on Melatonin receptor [1] stood at 1400 nM.

Regarding `CCCC(=O)NCCc1ccccc1OC`, the Ki at Melatonin receptor [1] is reported as 69 nM.

As for `CCCCC(=O)NCCCCc1cccc(OC)c1`, at Melatonin receptor [1], the Ki stood at 9670 nM.

Regarding `CCC(=O)NCCCc1ccccc1OC`, at Melatonin receptor [1], the Ki was determined as 374 nM.

In the case of `CCC(=O)NCCCCc1cccc(OC)c1`, the Ki at Melatonin receptor [1] is on record as 119 nM.

Take `CCC(=O)NCc1cccc(OC)c1`: at Melatonin receptor [1], the Ki worked out at 22000 nM.

On Melatonin receptor [1], `CCCCC(=O)NCCc1ccc(OC)cc1` gave a Ki of 70800 nM.

Regarding `CCC(=O)NCCc1c[nH]c2ccc(OC)cc12`, the Ki on Melatonin receptor [1] turned out to be 0.19 nM.

In the case of `COc1ccc(CCCNC(C)=O)cc1`, the Ki on Melatonin receptor [1] is recorded as 14000 nM.

In turn, `CCCC(=O)NCCc1ccc(OC)c(OC)c1` had a Ki at Melatonin receptor [1] of 59 nM.

With `CCCC(=O)NCCCc1cccc(F)c1`, on Melatonin receptor [1], the Ki was 434 nM.

On Melatonin receptor [1], `CCCC(=O)NCCCCc1ccc(OC)cc1` came in with a Ki of 822 nM.

For `COc1ccc(CCNC(C)=O)cc1OC`, the Ki at Melatonin receptor [1] is listed as 870 nM.

The molecule `COc1cccc(CCCNC(C)=O)c1` yielded a Ki on Melatonin receptor [1] of 63 nM.

As for `CCCC(=O)NCCCCc1ccccc1OC`, on Melatonin receptor [1], the Ki turned out to be 116 nM.

Molecule `CCCC(=O)NCc1cccc(OC)c1` returned a Ki at Melatonin receptor [1] of 13000 nM.

On to `COc1ccc(CCCCNC(C)=O)cc1`, for which, on Melatonin receptor [1], the Ki is given as 7300 nM.

Turning to `CCCC(=O)NCCCc1cccc(Br)c1`, at Melatonin receptor [1], the Ki came to 354 nM.

On to `CCC(=O)NCCc1ccccc1OC`, for which, at Melatonin receptor [1], the Ki was 135 nM.

Molecule `CCCC(=O)NCCCc1ccccc1OC` returned a Ki on Melatonin receptor [1] of 442 nM.

`COc1ccccc1CCCNC(C)=O`: on Melatonin receptor [1], the Ki was 1430 nM.

Molecule `CCCCC(=O)NCCc1cccc(OC)c1` yielded a Ki on Melatonin receptor [1] of 741 nM.

On Melatonin receptor [1], `CCCC(=O)NCCc1cccc(OC)c1` had a Ki of 40 nM.

For the molecule `CCC(=O)NCCCc1cccc(F)c1`, the Ki on Melatonin receptor [1] came out at 740 nM.

Regarding `CCC(=O)NCCCc1ccc(OC)cc1`, the Ki at Melatonin receptor [1] was 2900 nM.

On to `COc1ccccc1CCNC(C)=O`, for which the Ki on Melatonin receptor [1] was found to be 573 nM.

Take `COc1cccc(CNC(C)=O)c1`: at Melatonin receptor [1], the Ki came to 57000 nM.

At Melatonin receptor [1], `CCC(=O)NCCCc1cccc(Br)c1` showed a Ki of 318 nM.

Turning to `CC(=O)NCCCc1cccc(Br)c1`, the Ki on Melatonin receptor [1] was found to be 852 nM.

`CCCCC(=O)NCCc1ccccc1OC` gave a Ki on Melatonin receptor [1] of 16000 nM.

As to `CCC(=O)NCCc1ccc(OC)c(OC)c1`, on Melatonin receptor [1], the Ki came to 130 nM.

For `CCC(=O)NCCc1ccc(OC)cc1`, the Ki at Melatonin receptor [1] was found to be 19200 nM.

Regarding `COc1ccc(CCNC(C)=O)cc1`, the Ki on Melatonin receptor [2] is above 100000 nM; on Melatonin receptor [3], above 1000 nM.

The molecule `COc1cccc(CCNC(C)=O)c1` yielded a Ki at Melatonin receptor [2] of 958 nM.

For `CC(=O)NCCCc1cccc(F)c1`, the Ki at Melatonin receptor [1] was 1920 nM.

In the case of `CCCCC(=O)NCCCCc1ccc(OC)cc1`, the inhibition constant (Ki) on Melatonin receptor [1] is recorded as 7000 nM.

The molecule `COc1ccc2c(c1)c1c(n2C)CCCC1CNC(C)=O` (stereo unspecified) came in with a Ki on Melatonin receptor [1] of 0.97 nM.

As to `CCCC(=O)NCCCCc1cccc(OC)c1`, the Ki at Melatonin receptor [1] came out at 208 nM.

With `CCCC(=O)NCCCc1cccc(OC)c1`, on Melatonin receptor [1], the Ki was found to be 5.5 nM.

In turn, `CCC(=O)NCCc1cccc(OC)c1` showed a Ki on Melatonin receptor [1] of 62 nM.

On Melatonin receptor [1], `CCC(=O)NCCCCc1ccccc1OC` displayed a Ki of 339 nM.

Regarding `CC(=O)NCCCc1cccc(Cl)c1`, at Melatonin receptor [1], the Ki is reported as 636 nM.

Molecule `CCCCC(=O)NCCCc1cccc(Cl)c1` displayed a Ki on Melatonin receptor [1] of 15100 nM.

`CCCC(=O)NCCCc1ccc(OC)cc1`: the Ki on Melatonin receptor [1] came out at 860 nM.

Regarding `CCCCC(=O)NCCCc1ccccc1OC`, on Melatonin receptor [1], the Ki was above 100000 nM.

For the molecule `COc1ccc(Br)cc1CCN`, the Ki on Melatonin receptor [1] amounted to 8 nM.

Regarding `CCCC(=O)NCCCc1cccc(Cl)c1`, the Ki on Melatonin receptor [1] was determined as 113 nM.
